According to ChEMBL document CHEMBL1201862, “PubChem BioAssay data set” (2004):
Activity calls are given as the source filed them.

What was measured:
Streptococcus = assay: GAS UMAA2166 growth inhibition – luminescence, BacTiterGlo, counter-screen for streptokinase expression inhibitor project, dose response (AID 1915); format: functional, organism-based;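 further: potency for reduction of bacterial viability or growth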
Streptokinase A = biological target: T1, Streptokinase A (Streptococcus pyogenes serotype M1, UniProt P10520); assay: viability-normalized secreted streptokinase activity reduction – plasminogen activation absorbance, OD405, dose response (AID 1914); format: functional, Streptococcus pyogenes M1 GAS;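 further: secreted streptokinase activity via plasminogen activation per viability signal from cell pellet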
T1 sequence (P10520 whole entry): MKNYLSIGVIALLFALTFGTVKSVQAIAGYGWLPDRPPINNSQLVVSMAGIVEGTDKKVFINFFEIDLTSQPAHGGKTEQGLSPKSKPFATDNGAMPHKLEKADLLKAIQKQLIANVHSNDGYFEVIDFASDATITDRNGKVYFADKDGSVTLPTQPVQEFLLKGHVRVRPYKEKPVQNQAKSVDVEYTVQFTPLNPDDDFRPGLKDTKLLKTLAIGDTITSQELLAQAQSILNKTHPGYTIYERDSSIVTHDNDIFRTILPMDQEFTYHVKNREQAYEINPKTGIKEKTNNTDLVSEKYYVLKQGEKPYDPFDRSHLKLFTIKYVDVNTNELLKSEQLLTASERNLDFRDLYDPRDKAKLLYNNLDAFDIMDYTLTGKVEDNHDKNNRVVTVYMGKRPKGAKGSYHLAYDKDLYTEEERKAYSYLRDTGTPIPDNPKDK

INS1 = assay: INS-1E survival protection against cytokine death – cell-based, luminescence, retest, dose response (AID 449756); format: functional; conditions: Rattus norvegicus;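 further: cell death triggered by IL-1 beta plus TNF-alpha plus IFN-gamma mixture; protective hits raise ATP signal compared with cytokine alone wells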
[1] = biological target: Disintegrin and metalloproteinase domain-containing protein 17 (Homo sapiens, UniProt P78536); assay: inhibition of ADAM17 substrate cleavage – biochemical, quenched FRET substrate, counter-screen for ADAM10 exosite inhibitor project, dose response (AID 743253)
[2] = system: Streptococcus sp. 'group A'; assay: Streptococcus pyogenes SK(-)GAS viability under kanamycin – luminescence, BacTiterGlo, confirmation, counter-screen for streptokinase expression inhibitor project, dose response (AID 1900); format: functional, organism-based
[3] = miR-122 quantity in Huh7 after inhibitor exposure – cell-based, RT-qPCR, dry powder, orthogonal assay for miR-122 inhibitor project, dose response (AID 687041); format: functional
cells = conditions: HEK293;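 further: cells exposed to compound for 48 hours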
[4] = biological target: C-C chemokine receptor type 6 (Homo sapiens, UniProt P51684); assay: SAR analysis of small molecule antagonists of the CXCR6 receptor using a CCR6 receptor luminescent beta-arrestin counterscreen.; format: functional
[5] = biological target: C-X-C chemokine receptor type 4 (Homo sapiens, UniProt P61073); assay: SAR analysis of small molecule antagonists of the CXCR6 receptor using a CXCR4 receptor luminescent beta-arrestin counterscreen.; format: functional
[6] = viability loss in HepG2 hepatoma cells – cell-based, cherry-picks, set 5, cytotoxicity control, dose response (AID 1053118); format: functional
[7] = P. falciparum Dd2 growth inhibitors, dose response, SYBR Green, cherry-picked samples (AID 1159567); format: functional, cell-based
[8] = toxicity to human hepatoma HepG2 cells – cell-based, cherry-picked samples, cytotoxicity control, dose response (AID 1159577); format: functional
[9] = blockers of FN fibrillogenesis by fibroblasts – AH1F cells, Alexa488-FN fluorescence, cherry-picks, dose response (AID 1035475); format: functional, cell-based
[10] = viability loss in HEK293 kidney cells – cell-based, cherry-picks, set 5, cytotoxicity control, dose response (AID 1053117); format: functional
[11] = viability loss in A549 lung cancer cells – cell-based, cherry-picks, […], cytotoxicity control, dose response (AID 1053119); format: functional
[12] = biological target: T2, Polyadenylate-binding protein 1 (Homo sapiens, UniProt P11940); assay: MLLE binding blockers, Cy5 peptide tracer – biochemical, fluorescence polarization, Cy5-PAM2 peptide, secondary, miRNA deadenylation inhibitor project, dose response (AID 602260); format: functional; conditions: read-out: IC50_Mean
[13] = biological target: T2, Polyadenylate-binding protein 1; assay: MLLE domain peptide-binding blockers, IC50 – biochemical, fluorescence polarization, FITC-PAM2 peptide, dose response (AID 602259); format: functional; conditions: read-out: IC50_Mean
[14] = biological target: Peroxisome proliferator-activated receptor gamma/Nuclear receptor coactivator 3 (Homo sapiens, UniProt P37231); assay: (§1) TR-FRET dose response biochemical High Throughput Screening assay for agonists of the steroid receptor coactivator 3 (SRC-3) recruitment by the peroxisome proliferator-activated receptor gamma (PPAR gamma): non-selective agonists. [Related pubchem assays: 1301 (Confirmation screen.), 1048 (Primary screen.)]; format: functional
[15] = biological target: Peroxisome proliferator-activated receptor gamma/Nuclear receptor coactivator 1 (Homo sapiens, UniProt P37231); assay: as §1, with “1 (SRC-1)” for “3 (SRC-3)”, “assays (depositor defined):AID1300, AID1808, AID504735, AID631]” for “assays: 1301 (Confirmation screen.), 1048 (Primary screen.)]”; format: protein assay
Nonstructural protein 1 = Nonstructural protein 1 (Influenza A virus, UniProt Q194T2); format: functional, Influenza A virus (A/California/07/2009(H1N1))
[16] = biological target: Peroxisome proliferator-activated receptor gamma/Nuclear receptor coactivator 2 (Homo sapiens, UniProt P37231); assay: TR-FRET dose response biochemical High Throughput Screening assay for agonists of the steroid receptor coactivator 2 (SRC-2) recruitment by the peroxisome proliferator-activated receptor gamma (PPAR gamma): non-selective agonists. [Related pubchem assays: 1297, 1032 ]; format: functional
Fibrinogen beta chain [17] = biological target: T3, Fibrinogen beta chain (Homo sapiens, UniProt P02675); assay: Fluorescence polarization-based biochemical high throughput dose response assay to identify inhibitors that disrupt the binding of a cyclic peptide (Tn7) to the fibrin proteolytic product D-Dimer and fragment E complex [DD(E )].
Fibrinogen beta chain [18] = biological target: T3, Fibrinogen beta chain; assay: Fluorescence polarization-based biochemical high throughput dose response assay to identify inhibitors that disrupt the binding of a cyclic peptide (Tn6) to the fibrin proteolytic product D-Dimer and fragment E complex [DD(E )].
[19] = PAX5 cellular inhibition readout – cell-based, plate reader, dry powder samples, selectivity assay for PAX8 inhibitor project, dose response (AID 743047); format: functional;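 further: HEK293 cells carrying a Pax5 driven CD19 promoter luciferase reporter; potency of inhibitors that lower reporter luminescence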
Paired box protein Pax-8 = Paired box protein Pax-8 (Homo sapiens, UniProt Q06710); assay: PAX8 transcriptional activity inhibition in RMG-I – RMG-I cells, luciferase, cherry-pick, dose response (AID 687027); format: functional, cell-based;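 further: luciferase reporter driven by Pax8 target thyroperoxidase promoter measured by SteadyGlo luminescence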
[20] = PAX8-dependent cell viability loss – plate reader, dry powder, dose response (AID 743049); format: functional, cell-based
[21] = COV434 cell viability loss – plate reader, dry powder, SA7, cytotoxicity control for PAX8 inhibitor project, dose response (AID 743145); format: functional, cell-based
[22] = inhibitors acting on PAX2 in cells – cell-based, plate reader, dry powder samples, selectivity assay for PAX8 inhibitor project, dose response (AID 743048); format: functional;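 further: HEK293 cells carrying a WT1 promoter luciferase reporter driven by expressed Pax2; potency is for inhibition of Pax2 driven reporter signal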
[23] = HEK293 Cytotoxicity Assay Measured in Cell-Based System Using Plate Reader - 7071-01_Inhibitor_Dose_CherryPick_Activity_Set2.; format: functional
HEK293 = assay: viability loss in HEK293T cells – cell-based, ATP luminescence, cherry-pick samples, cytotoxicity control, dose response (AID 687005); format: functional; conditions: Homo sapiens;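 further: cells exposed to compound for 48 hours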

T2 sequence (P11940 whole entry, the tested form may be a part): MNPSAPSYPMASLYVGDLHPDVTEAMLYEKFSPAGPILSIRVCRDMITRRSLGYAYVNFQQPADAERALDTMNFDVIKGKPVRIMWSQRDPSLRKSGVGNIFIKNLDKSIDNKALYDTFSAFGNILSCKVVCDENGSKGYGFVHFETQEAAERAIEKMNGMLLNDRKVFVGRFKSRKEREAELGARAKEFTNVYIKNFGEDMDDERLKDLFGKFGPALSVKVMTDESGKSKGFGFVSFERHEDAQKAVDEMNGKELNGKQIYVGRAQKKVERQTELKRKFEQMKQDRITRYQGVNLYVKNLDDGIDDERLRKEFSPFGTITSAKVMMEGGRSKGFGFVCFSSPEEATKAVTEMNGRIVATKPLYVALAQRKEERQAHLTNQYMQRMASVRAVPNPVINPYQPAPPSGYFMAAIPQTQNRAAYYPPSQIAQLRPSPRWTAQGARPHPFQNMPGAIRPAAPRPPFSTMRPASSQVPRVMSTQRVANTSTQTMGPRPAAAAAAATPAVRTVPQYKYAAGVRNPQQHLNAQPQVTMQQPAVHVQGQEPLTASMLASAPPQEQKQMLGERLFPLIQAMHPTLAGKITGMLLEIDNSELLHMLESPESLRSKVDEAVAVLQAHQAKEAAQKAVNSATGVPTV
T3 sequence (P02675 whole entry, the tested form may be a part): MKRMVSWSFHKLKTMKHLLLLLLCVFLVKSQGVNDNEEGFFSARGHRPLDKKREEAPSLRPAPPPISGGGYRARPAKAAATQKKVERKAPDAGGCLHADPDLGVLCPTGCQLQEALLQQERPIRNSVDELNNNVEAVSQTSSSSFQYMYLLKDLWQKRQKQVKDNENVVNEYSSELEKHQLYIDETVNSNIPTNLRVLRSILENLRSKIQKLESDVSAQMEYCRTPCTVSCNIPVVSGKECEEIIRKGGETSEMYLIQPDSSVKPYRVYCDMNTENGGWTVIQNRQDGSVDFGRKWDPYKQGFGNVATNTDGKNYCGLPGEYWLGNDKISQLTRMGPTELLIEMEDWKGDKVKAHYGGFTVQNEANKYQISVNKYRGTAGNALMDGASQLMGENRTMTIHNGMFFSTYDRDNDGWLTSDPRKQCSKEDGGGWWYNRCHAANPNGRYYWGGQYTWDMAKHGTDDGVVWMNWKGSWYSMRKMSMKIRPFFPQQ
C-C chemokine receptor type 6, sequence (P51684 whole entry): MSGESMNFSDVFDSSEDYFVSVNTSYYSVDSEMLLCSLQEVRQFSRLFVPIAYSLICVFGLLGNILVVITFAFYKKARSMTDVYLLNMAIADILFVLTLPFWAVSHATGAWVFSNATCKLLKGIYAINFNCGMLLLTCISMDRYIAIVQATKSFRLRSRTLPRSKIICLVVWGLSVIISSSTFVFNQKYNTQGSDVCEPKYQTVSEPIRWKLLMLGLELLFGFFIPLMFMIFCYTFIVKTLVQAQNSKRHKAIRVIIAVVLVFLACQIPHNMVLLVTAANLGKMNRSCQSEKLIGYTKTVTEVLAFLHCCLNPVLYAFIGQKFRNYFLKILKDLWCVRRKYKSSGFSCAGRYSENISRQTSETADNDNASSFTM
Disintegrin and metalloproteinase domain-containing protein 17, sequence (P78536 whole entry, the tested form may be a part): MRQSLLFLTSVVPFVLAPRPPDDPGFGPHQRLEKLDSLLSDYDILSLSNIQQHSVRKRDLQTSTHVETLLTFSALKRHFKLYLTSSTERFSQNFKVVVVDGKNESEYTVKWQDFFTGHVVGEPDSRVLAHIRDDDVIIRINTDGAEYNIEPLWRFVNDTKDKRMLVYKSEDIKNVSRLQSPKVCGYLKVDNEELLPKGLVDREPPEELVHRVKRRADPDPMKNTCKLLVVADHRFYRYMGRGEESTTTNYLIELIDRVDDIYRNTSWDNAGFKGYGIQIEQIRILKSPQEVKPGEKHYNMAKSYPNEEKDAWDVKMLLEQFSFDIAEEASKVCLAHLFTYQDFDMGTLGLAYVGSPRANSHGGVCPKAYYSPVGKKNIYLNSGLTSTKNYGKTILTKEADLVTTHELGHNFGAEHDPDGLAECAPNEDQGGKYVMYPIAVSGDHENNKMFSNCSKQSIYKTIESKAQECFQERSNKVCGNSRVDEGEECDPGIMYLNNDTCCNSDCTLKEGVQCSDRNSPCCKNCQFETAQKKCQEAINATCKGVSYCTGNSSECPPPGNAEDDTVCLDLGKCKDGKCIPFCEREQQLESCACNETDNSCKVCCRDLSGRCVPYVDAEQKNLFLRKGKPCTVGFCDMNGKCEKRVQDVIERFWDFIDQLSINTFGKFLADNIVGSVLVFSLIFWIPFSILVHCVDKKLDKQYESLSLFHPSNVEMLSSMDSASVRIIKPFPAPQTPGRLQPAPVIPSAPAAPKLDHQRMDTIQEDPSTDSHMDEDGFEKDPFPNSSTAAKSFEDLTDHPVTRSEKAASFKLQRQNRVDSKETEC
C-X-C chemokine receptor type 4, sequence (P61073 whole entry): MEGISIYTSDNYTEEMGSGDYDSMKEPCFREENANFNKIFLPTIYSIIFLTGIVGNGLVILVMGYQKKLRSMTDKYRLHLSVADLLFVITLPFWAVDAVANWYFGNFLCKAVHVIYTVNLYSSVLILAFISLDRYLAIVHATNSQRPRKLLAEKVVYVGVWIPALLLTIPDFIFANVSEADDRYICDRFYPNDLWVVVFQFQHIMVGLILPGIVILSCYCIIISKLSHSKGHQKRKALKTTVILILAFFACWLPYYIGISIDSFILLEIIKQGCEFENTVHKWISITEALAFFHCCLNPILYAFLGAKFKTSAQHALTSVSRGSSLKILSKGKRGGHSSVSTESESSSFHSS
Peroxisome proliferator-activated receptor gamma/Nuclear receptor coactivator 2, sequence (P37231 whole entry, the tested form may be a part): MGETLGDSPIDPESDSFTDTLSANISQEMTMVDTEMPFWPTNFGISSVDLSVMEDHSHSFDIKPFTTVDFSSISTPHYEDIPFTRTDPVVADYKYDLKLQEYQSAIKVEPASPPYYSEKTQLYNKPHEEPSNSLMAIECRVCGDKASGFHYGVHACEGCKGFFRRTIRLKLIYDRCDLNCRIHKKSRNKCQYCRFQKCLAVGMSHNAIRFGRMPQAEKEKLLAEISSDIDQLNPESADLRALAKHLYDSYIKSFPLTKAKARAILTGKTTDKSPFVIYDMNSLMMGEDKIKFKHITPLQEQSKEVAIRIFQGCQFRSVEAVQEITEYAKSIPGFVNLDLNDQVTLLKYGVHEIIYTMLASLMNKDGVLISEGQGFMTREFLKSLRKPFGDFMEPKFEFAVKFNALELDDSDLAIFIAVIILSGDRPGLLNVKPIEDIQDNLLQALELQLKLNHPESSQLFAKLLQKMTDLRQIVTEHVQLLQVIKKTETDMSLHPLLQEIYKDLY
Peroxisome proliferator-activated receptor gamma/Nuclear receptor coactivator 2, sequence (Q15596 whole entry, further chain, the tested form may be a part): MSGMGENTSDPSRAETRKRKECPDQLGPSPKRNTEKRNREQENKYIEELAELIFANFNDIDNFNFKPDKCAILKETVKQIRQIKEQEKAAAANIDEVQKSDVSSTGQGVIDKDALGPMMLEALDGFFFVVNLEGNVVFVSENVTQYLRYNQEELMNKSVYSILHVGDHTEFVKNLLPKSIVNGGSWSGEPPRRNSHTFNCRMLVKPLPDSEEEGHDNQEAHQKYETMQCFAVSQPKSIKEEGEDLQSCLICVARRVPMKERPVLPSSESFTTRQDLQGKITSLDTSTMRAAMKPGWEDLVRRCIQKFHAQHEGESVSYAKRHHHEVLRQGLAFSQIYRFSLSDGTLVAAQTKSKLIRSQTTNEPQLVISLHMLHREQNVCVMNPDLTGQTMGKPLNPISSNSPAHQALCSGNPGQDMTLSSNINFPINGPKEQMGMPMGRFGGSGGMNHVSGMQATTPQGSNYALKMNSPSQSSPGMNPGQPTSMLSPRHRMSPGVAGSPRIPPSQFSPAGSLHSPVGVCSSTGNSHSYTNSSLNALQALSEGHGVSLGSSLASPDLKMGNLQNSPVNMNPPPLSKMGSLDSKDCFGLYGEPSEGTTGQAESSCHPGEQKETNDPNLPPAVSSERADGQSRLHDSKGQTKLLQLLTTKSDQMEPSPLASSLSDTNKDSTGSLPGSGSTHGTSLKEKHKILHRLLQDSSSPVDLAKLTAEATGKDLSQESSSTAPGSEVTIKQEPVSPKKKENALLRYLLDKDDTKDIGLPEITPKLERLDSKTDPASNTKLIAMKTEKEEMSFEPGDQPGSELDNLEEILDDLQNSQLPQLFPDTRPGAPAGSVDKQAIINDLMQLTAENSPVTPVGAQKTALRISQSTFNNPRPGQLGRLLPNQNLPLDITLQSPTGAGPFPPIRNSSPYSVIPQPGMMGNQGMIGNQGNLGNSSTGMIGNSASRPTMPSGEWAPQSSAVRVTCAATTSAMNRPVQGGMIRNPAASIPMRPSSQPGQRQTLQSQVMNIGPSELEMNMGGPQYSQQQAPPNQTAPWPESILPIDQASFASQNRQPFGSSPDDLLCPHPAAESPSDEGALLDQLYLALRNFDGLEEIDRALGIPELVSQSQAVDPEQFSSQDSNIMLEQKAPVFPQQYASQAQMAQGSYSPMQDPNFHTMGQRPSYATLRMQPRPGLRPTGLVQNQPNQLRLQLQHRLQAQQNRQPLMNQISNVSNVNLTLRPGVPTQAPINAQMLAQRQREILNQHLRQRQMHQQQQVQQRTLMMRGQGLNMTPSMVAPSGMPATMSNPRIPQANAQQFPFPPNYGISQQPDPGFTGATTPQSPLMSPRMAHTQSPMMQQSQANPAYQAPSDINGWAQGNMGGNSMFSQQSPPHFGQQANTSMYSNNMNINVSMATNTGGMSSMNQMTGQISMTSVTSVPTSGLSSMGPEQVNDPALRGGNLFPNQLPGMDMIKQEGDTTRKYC
Nonstructural protein 1, sequence (Q194T2 whole entry): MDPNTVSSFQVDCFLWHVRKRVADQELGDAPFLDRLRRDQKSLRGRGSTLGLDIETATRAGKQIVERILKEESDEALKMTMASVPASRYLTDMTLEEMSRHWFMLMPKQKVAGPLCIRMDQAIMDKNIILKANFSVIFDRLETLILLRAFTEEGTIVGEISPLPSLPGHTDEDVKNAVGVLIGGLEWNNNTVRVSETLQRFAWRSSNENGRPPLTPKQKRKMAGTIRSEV

In the case of `O=C(NNc1ccccc1Br)C(O)(c1cccc(C(F)(F)F)c1)c1cccc(C(F)(F)F)c1`, the EC50 (Streptococcus) was 9.39 µM (active), the EC50 (Streptokinase A) was 2.13 µM (active) and the AC50 (INS1) was 6.89 µM (active). For the same compound, the IC50 [1] was > 69.5 µM (inactive) and the EC50 [2] was 3.48 µM (active).
In the case of `S=C(Nc1ccc(Cl)cc1Cl)NC1CCCCC1`, the AC50 [3] was 2.25 µM (active).
In the case of `CC(=O)Oc1ccc(C(=O)Nc2cc(C)on2)cc1`, the AC50 (cells) was > 52 µM (inactive).
For `COc1cc(C(=O)NC2CC3CCCC(C2)N3CC(=O)Nc2ccc(Cl)cc2)cc(OC)c1OC` (stereo not given), the IC50 [4] was > 79 µM (inactive) and the IC50 [5] was > 79 µM (inactive).
With `CO[C@@H]1CN(C)C(=O)c2ccc(NC(=O)c3ccc(-c4ccccc4)cc3)cc2OC[C@@H](C)NC[C@H]1C` the AC50 [6] was 10.8 µM (active), the AC50 [7] was 8.67 µM (active) and the AC50 [8] was 10.3 µM (active). For the same compound, the AC50 [9] was 19.6 µM (active), the AC50 [10] was 12.1 µM (active) and the AC50 [11] was 12.3 µM (active).
In the case of `Cc1cc2cc(CNS(=O)(=O)c3ccc4ccccc4c3)ccc2n1C`, the IC50 [12] was > 66 µM (inactive), the IC50 [13] was 46.5 µM (inactive) and the EC50 [14] was 14.4 µM (not active). For the same compound, the EC50 [15] was 6.2 µM (active), the IC50 (Nonstructural protein 1) was 46.8 µM (active) and the EC50 [16] was 6.29 µM (active). For the same compound, the IC50 (Fibrinogen beta chain [17]) was > 83.3 µM (inactive) and the IC50 (Fibrinogen beta chain [18]) was 21 µM (inactive).
With `C[C@@H]1CN([C@H](C)CO)C(=O)CCCn2nncc2CO[C@H]1CN(C)Cc1ccc(Oc2ccccc2)cc1` the AC50 [19] was > 70 µM (inactive), the AC50 (Paired box protein Pax-8) was 22.1 µM (active) and the AC50 [20] was > 70 µM (inactive). For the same compound, the AC50 [21] was 0.00024 µM (active) and the AC50 [22] was 47.9 µM (active).
With `CCOC(=O)CNC(=O)CSc1ncnc2c1cnn2-c1ccc(OC)cc1` the AC50 [23] was 34.4 µM (active) and the AC50 (HEK293) was 34.4 µM (active).
